Measured values taken from ChEMBL document CHEMBL1201862, “PubChem BioAssay data set” (2004).
Calls of active or inactive are those of the source.

Tests used:
[1] = A Cell Based Secondary Assay To Explore Cytotoxicity of Compounds that Sensitize Mycobacterium Tuberculosis to Beta-Lactam Antibiotics.; format: functional
[2] = biological target: Cytochrome P450 3A4 (Homo sapiens, UniProt P08684);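 note: CYP3A4 tested as one member of a cytochrome P450 panel screen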
[3] = biological target: T1, Microphthalmia-associated transcription factor (Homo sapiens, UniProt O75030); test: reducers of TRPM1 reporter luminescence, concentration series – cell-based, SK-MEL-5, cherry-picked, set 3, MITF inhibitor project, dose response (AID 493073); format: functional;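 note: SK-MEL-5 melanoma cells with luciferase driven by the MITF target TRPM1 promoter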
T1 sequence (O75030 whole entry): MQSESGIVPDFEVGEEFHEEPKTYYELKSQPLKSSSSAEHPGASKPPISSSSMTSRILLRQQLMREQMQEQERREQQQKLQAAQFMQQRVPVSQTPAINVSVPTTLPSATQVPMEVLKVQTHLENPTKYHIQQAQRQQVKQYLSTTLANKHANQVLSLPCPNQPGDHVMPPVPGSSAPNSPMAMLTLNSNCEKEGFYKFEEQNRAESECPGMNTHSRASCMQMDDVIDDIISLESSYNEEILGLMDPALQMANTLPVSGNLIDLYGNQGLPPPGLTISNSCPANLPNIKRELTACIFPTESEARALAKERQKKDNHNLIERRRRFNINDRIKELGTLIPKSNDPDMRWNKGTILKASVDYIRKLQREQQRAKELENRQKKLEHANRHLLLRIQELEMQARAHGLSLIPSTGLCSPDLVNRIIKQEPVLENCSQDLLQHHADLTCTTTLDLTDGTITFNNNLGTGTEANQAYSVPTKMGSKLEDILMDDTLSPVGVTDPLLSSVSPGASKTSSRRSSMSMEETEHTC

[4] = biological target: T2, Heat shock factor protein 1 (Mus musculus, UniProt P38532); test: decrease of HSF1-responsive luciferase luminescence – cell-based, NIH3T3, dose retest, confirmation (AID 2382); format: functional;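 note: NIH3T3 fibroblasts with HSF1-driven luciferase reporter stressed by proteasome inhibitor MG132; luminescence from HSF1-driven luciferase expression after 8 hours of MG132 stress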
T2 sequence (P38532 whole entry): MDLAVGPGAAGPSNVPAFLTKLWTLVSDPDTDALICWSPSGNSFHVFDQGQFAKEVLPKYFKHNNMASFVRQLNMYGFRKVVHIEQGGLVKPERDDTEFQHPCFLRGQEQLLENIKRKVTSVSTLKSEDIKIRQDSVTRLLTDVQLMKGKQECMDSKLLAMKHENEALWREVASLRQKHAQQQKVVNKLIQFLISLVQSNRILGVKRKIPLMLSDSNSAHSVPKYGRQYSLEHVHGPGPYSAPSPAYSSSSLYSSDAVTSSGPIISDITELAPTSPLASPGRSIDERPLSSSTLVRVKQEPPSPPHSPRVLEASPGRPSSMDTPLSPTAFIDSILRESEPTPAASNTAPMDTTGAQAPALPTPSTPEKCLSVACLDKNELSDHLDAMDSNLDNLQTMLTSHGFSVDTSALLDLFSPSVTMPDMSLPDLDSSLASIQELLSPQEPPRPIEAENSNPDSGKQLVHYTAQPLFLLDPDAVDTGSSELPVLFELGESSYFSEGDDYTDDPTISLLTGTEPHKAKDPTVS

[5] = HEK-293T cell viability reduction – luminescence, B-cell screen hits, cytotoxicity control for BCR NF-kB inhibitor project, dose response (AID 489021); format: functional, cell-based;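 note: HEK-293T cells carrying an NF-kB luciferase reporter; cells exposed to compound for about 14 hours before viability readout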
[6] = viability of PTEN-deleted HCT116 cells – cell-based, HCT116 PTEN knockout, dose response (AID 1047); format: functional;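 note: HCT116 colon tumor cells with PTEN knocked out; cells exposed to compound for 60 hours before readout; potency for loss of cell viability measured by luminescence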
[7] = NIH3T3 cell viability loss – ATP luminescence, mouse fibroblasts, counter-screen, dose response (AID 2010); format: functional, cell-based;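 note: cells exposed to compound for about 90 hours before reading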
[8] = test system: INS1; test: INS-1E survival protection against cytokine death – cell-based, luminescence, retest, dose response (AID 449756); format: functional; details: Rattus norvegicus;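 note: cell death triggered by IL-1 beta plus TNF-alpha plus IFN-gamma mixture; protective hits raise ATP signal compared with cytokine alone wells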
[9] = NIH-3T3 fibroblast cytotoxicity, dose response, cytotoxicity control, cell-based, fluorescence, Alamar Blue, secondary assay (AID 2327); format: functional;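 note: NIH-3T3 mouse fibroblasts cultured with fluconazole at 8 µg/mL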
[10] = fluconazole-exposed Candida albicans growth modulators – fluorescence, retest, confirmation (AID 2467); format: functional, cell-based
[11] = biological target: T3, Short transient receptor potential channel 4 (Mus musculus, UniProt Q9QUQ5); test: block of DAMGO-driven TRPC4 calcium entry – cell-based, HEK293 TRPC4/mu-opioid, Fluo-4 calcium, dose response (AID 434942); format: functional;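 note: potency of inhibitors blocking the TRPC4 calcium response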
T3 sequence (Q9QUQ5 whole entry): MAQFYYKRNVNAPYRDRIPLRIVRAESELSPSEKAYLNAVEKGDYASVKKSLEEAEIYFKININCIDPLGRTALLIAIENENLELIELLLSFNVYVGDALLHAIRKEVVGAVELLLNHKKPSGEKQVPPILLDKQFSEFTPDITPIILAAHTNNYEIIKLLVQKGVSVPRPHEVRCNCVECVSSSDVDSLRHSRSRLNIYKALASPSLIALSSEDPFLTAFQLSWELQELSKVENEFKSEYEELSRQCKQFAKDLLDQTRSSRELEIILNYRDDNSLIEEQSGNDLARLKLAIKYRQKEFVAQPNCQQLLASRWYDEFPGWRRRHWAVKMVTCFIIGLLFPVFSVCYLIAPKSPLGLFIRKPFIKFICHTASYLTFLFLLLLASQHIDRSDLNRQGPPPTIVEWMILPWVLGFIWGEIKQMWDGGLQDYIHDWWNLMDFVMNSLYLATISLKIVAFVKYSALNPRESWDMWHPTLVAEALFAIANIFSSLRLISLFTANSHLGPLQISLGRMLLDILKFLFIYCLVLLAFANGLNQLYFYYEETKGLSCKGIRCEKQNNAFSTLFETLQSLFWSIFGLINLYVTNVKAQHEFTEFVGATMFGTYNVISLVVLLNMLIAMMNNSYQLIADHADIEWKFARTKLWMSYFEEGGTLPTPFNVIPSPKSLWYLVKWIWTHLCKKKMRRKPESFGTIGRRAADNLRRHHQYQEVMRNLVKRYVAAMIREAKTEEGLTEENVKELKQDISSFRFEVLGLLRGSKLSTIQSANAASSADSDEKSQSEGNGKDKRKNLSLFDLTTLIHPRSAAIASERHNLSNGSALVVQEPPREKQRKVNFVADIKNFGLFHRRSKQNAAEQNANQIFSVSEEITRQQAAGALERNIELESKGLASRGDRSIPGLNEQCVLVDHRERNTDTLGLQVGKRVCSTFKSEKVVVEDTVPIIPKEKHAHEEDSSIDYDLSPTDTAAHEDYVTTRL

[12] = Trypanosoma cruzi growth suppression in host cells – NIH3T3 host cells, beta-gal luminescence, confirmation (AID 2044); format: functional, cell-based;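 note: intracellular parasites grown in NIH/3T3 mouse fibroblasts as host cells; luminescent beta-galactosidase reporter signal from transgenic T. cruzi replicating inside host cells; inhibitors lower the luminescence signal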
[13] = biological target: T2, Heat shock factor protein 1; test: enhancement of HSF1-driven luciferase signal – cell-based, NIH3T3, luminescence, dose retest, confirmation (AID 435004); format: functional;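 note: stress induced by proteasome inhibitor MG132 added 30 min after compound; luciferase reporter driven by HSF1 response element in NIH3T3 cells; actives raise luminescence as potentiators of the MG132 stress response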
[14] = viability of HCT116 lacking mutant beta-catenin – cell-based, human colon tumor, dose response (AID 1045); format: functional;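 note: HCT116 colon tumor cells with beta catenin knocked out; cells exposed to compound for 60 hours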
[15] = test system: BJ; test: BJ-TERT fibroblast viability loss – cell-based, RAS-independent, luminescence, dose response (AID 1933); format: functional; details: Homo sapiens
[16] = HEK-293T viability loss after treatment – luminescence, T-cell screen hits, cytotoxicity control for TCR NF-kB inhibitor project, dose response (AID 489026); format: functional, cell-based;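 note: cells exposed to compound about 14 hours before the viability readout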
[17] = test system: BJ; test: cells; format: functional, cell-based; details: Homo sapiens
[18] = DRD fibroblast viability loss – cell-based, non-viral oncogenic, luminescence, dose response (AID 1934); format: functional; details: Homo sapiens
[19] = test system: BJ; test: BJ-TERT-LT-ST fibroblast viability loss – cell-based, RAS-independent, luminescence, dose response (AID 1935); format: functional; details: Homo sapiens;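 note: BJ fibroblasts immortalized with TERT plus LT and ST oncogenes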
[20] = cells; format: functional
[21] = microbe, parasite or virus in culture; format: functional; details: Mycobacterium tuberculosis
[22] = biological target: Glucose-6-phosphate 1-dehydrogenase (Homo sapiens, UniProt P11413); test: inhibition of Homo sapiens G6PD, dose series – biochemical, fluorescence, selectivity assay for P. falciparum G6PD inhibitor project, dose response (AID 504792); format: functional
[23] = THP-1 cell cytotoxicity, dose response, cytotoxicity control for non-replicating M. tuberculosis project (AID 489025); format: functional
[24] = Vero E6 cell cytotoxicity, dose response, cytotoxicity control for non-replicating M. tuberculosis project, secondary assay (AID 492998); format: functional, VeroE6; details: Vero C1008
[25] = biological target: Induced myeloid leukemia cell differentiation protein Mcl-1 (Homo sapiens, UniProt Q07820); format: functional
[26] = biological target: Genome polyprotein (dengue virus type 2, UniProt P29990); test: flavivirus cap methylation enzyme inhibition – biochemical, confirmation dose response, primary screen (AID 588689); format: functional
[27] = test system: Vero; test: cells; format: functional; details: Chlorocebus sabaeus

Genome polyprotein, sequence (P29990 2492-3391 limits assumed): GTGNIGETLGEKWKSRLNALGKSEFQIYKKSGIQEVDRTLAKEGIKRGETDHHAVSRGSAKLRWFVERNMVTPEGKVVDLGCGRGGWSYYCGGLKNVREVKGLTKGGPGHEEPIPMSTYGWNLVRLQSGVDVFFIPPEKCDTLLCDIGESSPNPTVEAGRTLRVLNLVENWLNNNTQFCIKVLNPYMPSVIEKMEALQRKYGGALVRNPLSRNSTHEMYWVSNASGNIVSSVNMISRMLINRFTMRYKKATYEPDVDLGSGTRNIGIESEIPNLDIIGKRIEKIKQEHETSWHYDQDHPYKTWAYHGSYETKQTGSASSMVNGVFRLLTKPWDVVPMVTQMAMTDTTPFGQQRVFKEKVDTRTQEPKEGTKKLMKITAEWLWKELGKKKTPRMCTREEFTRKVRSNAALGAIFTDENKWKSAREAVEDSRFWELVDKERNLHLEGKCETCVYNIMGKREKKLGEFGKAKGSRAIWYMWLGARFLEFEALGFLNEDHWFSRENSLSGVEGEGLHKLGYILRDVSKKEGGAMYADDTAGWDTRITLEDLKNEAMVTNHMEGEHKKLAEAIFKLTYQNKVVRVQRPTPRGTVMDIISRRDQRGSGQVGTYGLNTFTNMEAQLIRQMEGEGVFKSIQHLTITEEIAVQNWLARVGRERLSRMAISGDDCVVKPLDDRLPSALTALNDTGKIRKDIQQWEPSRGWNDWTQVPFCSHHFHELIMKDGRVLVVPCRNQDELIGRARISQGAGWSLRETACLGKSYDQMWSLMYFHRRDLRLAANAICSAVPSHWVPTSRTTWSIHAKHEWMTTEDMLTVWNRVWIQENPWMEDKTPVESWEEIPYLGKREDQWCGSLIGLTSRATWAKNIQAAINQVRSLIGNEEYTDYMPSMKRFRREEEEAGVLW
Induced myeloid leukemia cell differentiation protein Mcl-1, sequence (Q07820 whole entry): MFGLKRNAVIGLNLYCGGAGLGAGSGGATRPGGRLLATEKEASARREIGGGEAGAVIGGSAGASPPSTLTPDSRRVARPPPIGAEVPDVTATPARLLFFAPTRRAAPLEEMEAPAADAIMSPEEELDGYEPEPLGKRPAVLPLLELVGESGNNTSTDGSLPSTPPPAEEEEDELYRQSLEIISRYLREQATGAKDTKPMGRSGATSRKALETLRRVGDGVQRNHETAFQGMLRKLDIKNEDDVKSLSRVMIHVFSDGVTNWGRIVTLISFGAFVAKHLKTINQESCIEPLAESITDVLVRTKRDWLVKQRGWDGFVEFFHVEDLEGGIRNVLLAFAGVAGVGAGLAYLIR
Cytochrome P450 3A4, sequence (P08684 whole entry): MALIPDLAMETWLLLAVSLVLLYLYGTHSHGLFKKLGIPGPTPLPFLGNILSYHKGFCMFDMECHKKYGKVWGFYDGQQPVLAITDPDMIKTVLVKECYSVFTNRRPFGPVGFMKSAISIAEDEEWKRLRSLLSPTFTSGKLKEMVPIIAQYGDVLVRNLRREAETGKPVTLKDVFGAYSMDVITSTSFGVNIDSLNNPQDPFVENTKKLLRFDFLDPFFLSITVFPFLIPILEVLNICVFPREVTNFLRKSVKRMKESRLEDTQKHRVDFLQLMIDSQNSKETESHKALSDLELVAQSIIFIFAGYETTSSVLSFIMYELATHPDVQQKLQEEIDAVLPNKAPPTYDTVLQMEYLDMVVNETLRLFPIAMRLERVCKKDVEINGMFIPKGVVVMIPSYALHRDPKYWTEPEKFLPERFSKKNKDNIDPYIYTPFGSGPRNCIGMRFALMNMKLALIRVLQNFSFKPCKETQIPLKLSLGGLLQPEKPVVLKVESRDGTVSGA
Glucose-6-phosphate 1-dehydrogenase, sequence (P11413 whole entry): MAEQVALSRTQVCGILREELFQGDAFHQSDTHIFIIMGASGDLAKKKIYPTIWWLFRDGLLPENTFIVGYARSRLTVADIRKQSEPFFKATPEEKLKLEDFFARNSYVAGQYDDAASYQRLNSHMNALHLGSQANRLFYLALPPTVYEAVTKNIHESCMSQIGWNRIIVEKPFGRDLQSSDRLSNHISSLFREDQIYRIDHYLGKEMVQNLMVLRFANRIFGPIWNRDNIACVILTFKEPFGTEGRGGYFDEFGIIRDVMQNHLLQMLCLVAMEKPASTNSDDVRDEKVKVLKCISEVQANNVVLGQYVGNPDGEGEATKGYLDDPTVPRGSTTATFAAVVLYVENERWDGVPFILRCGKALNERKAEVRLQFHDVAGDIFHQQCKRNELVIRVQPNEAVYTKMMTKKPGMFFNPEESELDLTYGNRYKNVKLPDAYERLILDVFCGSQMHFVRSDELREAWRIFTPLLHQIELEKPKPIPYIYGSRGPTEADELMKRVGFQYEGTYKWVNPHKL

Nc1c(C(=O)N2CCCC2)sc2nc3c(cc12)CCCCCC3
CC50 [1]: > 40 µM (active)

O=C(c1csnn1)N1CCC2(CC1)CN(c1ccccn1)C2
AC50 [2]: inconclusive

O=C1CCC2S/C(=C/Nc3ccc(C(F)(F)F)cc3)C(=O)N12 (centres undefined)
AC50 [3]: 3.57 µM (active) | EC50 [4]: 2.44 µM (active) | IC50 [5]: > 80 µM (inactive)

CC#CC[N+](C)(C)CCCCCCCCCCCC
EC50 [6]: 4.9 µM (active) | EC50 [7]: > 30 µM (not active) | AC50 [8]: 1.85 µM (active) | EC50 [9]: > 150 µM (inactive) | CC50 [1]: > 40 µM (active) | EC50 [10]: 2.85 µM (active) | EC50 [11]: 1.5 µM (active) | EC50 [12]: 1.05 µM (active) | EC50 [13]: > 260 µM (inactive) | EC50 [14]: 5.82 µM (active)

Cc1cccc(NC(=O)Cn2c(=O)n(Cc3ccccc3)c(=O)c3c(C)c(C)sc32)c1
CC50 [1]: > 40 µM (active)

CCOC(=O)Cc1csc(NC(=S)NC(=O)c2ccc(C)cc2)n1
IC50 [5]: > 80 µM (inactive)

CCOc1ccccc1C1CC(=O)Nc2cc(C)c(C)cc21 (centres undefined)
EC50 [15]: 14 µM (active) | IC50 [16]: > 80 µM (inactive) | EC50 [17]: 53.3 µM (active) | EC50 [18]: 18.1 µM (active) | EC50 [19]: 23.5 µM (active)

CC(C)Cn1c([N+](=O)[O-])nc2c1c(=O)[nH]c(=O)n2C
IC50 [20]: 5.98 µM (active) | CC50 [21]: 12.4 µM (active) | IC50 [22]: > 80 µM (inactive) | CC50 [23]: 9.18 µM (active) | CC50 [24]: 14.6 µM (active) | IC50 [5]: 47.3 µM (inactive)

COC(=O)C1=C(C(=O)OC)C(c2cc(Cl)ccc2O)c2sc(O)nc2S1 (centres undefined)
IC50 [25]: 4.4 µM (active) | IC50 [26]: > 100 µM (active)

O=C1Nc2ccccc2/C1=C/C(=O)c1cccs1
EC50 [6]: 7.47 µM (active) | IC50 [20]: 8.52 µM (active) | EC50 [9]: > 150 µM (inactive) | EC50 [10]: 1.75 µM (active) | EC50 [4]: > 195 µM (not active) | CC50 [23]: 21.1 µM (active) | CC50 [24]: 14.4 µM (active) | EC50 [14]: 5.7 µM (active) | CC50 [27]: 17.6 µM (active)
